Test results reported in patent US6537986B2, “Oxazolidinone antibacterial agents having a thiocarbonyl funtionality” (Pharmacia & Upjohn Company, priority 1997, dated 2003).
≈ marks a conversion by molar mass, not a printed value. Where two headings read alike, the source gives them in different places.

What was measured:
E. Faecium (EFAE 12712) = experiment: MIC, standard agar dilution method; type: cell-based; settings: for MIC: Enterococcus faecium, read-out: EFAE 12712 MIC
Description: (§1) MIC Test Method The in vitro MICs of test compounds were determined by a standard agar dilution method. […] Serial 2-fold dilutions of each sample are made using 1.0 ml aliquots of sterile distilled water. To each 1.0 ml aliquot of drug is added 9 ml of molten Mueller Hinton agar medium. The drug-supplemented agar is mixed, poured into 15×100 mm petri dishes, and allowed to solidify and dry prior to inoculation. Vials of each of the test organisms are maintained frozen in the vapor phase of a liquid nitrogen freezer. Test cultures are grown overnight at 35° C. on the medium appropriate for the organism. Colonies are harvested with a sterile swab, and cell suspensions are prepared in Trypticase Soy broth (TSB) to equal the turbidity of a 0.5 McFarland standard. A 1:20 dilution of each suspension is made in TSB. […] The plates are incubated overnight at 35° C. Following incubation the Minimum Inhibitory Concentration (MIC μg/ml), the lowest concentration of drug that inhibits visible growth of the organism, is read and recorded.

[1] = tested on: Enterococcus faecalis (EFAE 9217); experiment: MIC, standard agar dilution method; type: cell-based; settings: Table II, key: Enterococcus faecalis, Mueller Hinton agar, incubated overnight at 35° C.; for MIC: read-out: EFAE 9217 MIC
Description: as §1

[2] = tested on: Haemophilus influenzae (HINF 30063); experiment: MIC, standard agar dilution method; type: cell-based; settings: Table II, Mueller Hinton agar, incubated overnight at 35° C.; for MIC: Haemophilus influenzae
Description: as §1

[3] = tested on: Moraxella catarrhalis (MCAT 30610); experiment: MIC, standard agar dilution method; type: cell-based; settings: Table II, Mueller Hinton agar, incubated overnight at 35° C.; for MIC: Moraxella catarrhalis
Description: as §1

S. aureus (SAUR 9213) = experiment: MIC, standard agar dilution method; type: cell-based; settings: Table II, Mueller Hinton agar, incubated overnight at 35° C.; for MIC: Staphylococcus aureus, read-out: SAUR 9213 MIC
Description: as §1

[4] = tested on: S. epidermidis (SEPI 30593); experiment: MIC, standard agar dilution method; type: cell-based; settings: Table II, Mueller Hinton agar, incubated overnight at 35° C.; for MIC: Staphylococcus epidermidis
Description: as §1

[5] = tested on: S. pneumoniae (SPNE 9912); experiment: MIC, standard agar dilution method; type: cell-based; settings: Table II, Mueller Hinton agar, incubated overnight at 35° C.; for MIC: Streptococcus pneumoniae, read-out: SPNE 9912 MIC
Description: as §1

S. pyogenes (SPYO 152) = experiment: MIC, standard agar dilution method; type: cell-based; settings: Table II, Mueller Hinton agar, incubated overnight at 35° C.; for MIC: Streptococcus pyogenes, read-out: SPYO 152 MIC
Description: as §1

[6] = Table II, key: E. Faecium, agar dilution, Mueller Hinton agar, incubated overnight at 35° C.

Row | SMILES | MIC (E. Faecium (EFAE 12712)) [µg/mL] | MIC [1] [µg/mL] | MIC [2] [µg/mL] | MIC [3] [µg/mL] | MIC (S. aureus (SAUR 9213)) [µg/mL] | MIC [4] [µg/mL] | MIC [5] [µg/mL] | MIC (S. pyogenes (SPYO 152)) [µg/mL] | MIC (E. Faecium (EFAE 12712); [6]) [µg/mL] | melting point | EFAE 12712 MIC (E. Faecium (EFAE 12712); [6]) [µg/mL] | EFAE 9217 MIC [1] [µg/mL] | HINF 30063 MIC [2] [µg/mL] | MCAT 30610 MIC [3] [µg/mL] | SAUR 9213 MIC (S. aureus (SAUR 9213)) [µg/mL] | SEPI 30593 MIC [4] [µg/mL] | SPNE 9912 MIC [5] [µg/mL] | SPYO 152 MIC (S. pyogenes (SPYO 152)) [µg/mL]
1 | CC(=S)NC[C@H]1CN(c2ccc([C@H]3CC[S@@+]([O-])CC3)c(F)c2)C(=O)O1 [Example 7, (S)-cis-N-[[3-[3-Fluoro-4-(tetrahydro-1-oxido-2H-thiopyran-4-yl)phenyl]-2-oxo-5-oxazolidinyl]methyl]ethanethioamide] | 0.5 (≈ 1.3 µM) | 0.5 (≈ 1.3 µM) | 4 (≈ 10.4 µM) | 1 (≈ 2.6 µM) | 0.5 (≈ 1.3 µM) | 0.25 (≈ 0.65 µM) | < 0.125 | 0.25 (≈ 0.65 µM) | – | – | – | – | – | – | – | – | – | –
2 | NC(=S)NC[C@H]1CN(c2ccc([C@H]3CC[S@@+]([O-])CC3)c(F)c2)C(=O)O1 [Example 8, (S)-cis-[[3-[3-Fluoro-4-(tetrahydro-1-oxido-2H-thiopyran-4-yl)phenyl]-2-oxo-5-oxazolidinyl]methyl]thiourea] | – | 1 (≈ 2.59 µM) | 4 (≈ 10.4 µM) | 2 (≈ 5.19 µM) | 2 (≈ 5.19 µM) | 1 (≈ 2.59 µM) | < 0.125 | 0.25 (≈ 0.649 µM) | 0.5 (≈ 1.3 µM) | – | – | – | – | – | – | – | – | –
3 | CC(=S)NC[C@H]1CN(c2ccc([C@H]3CC[S@+]([O-])CC3)c(F)c2)C(=O)O1 [Example 9, (S)-trans-N-[[3-[3-Fluoro-4-(tetrahydro-1-oxido-2H-thiopyran-4-yl)phenyl]-2-oxo-5-oxazolidinyl]methyl]ethanethioamide] | – | 0.25 (≈ 0.65 µM) | 2 (≈ 5.2 µM) | 0.5 (≈ 1.3 µM) | 0.5 (≈ 1.3 µM) | 0.25 (≈ 0.65 µM) | < 0.125 | < 0.125 | 0.25 (≈ 0.65 µM) | – | – | – | – | – | – | – | – | –
4 | NC(=S)NC[C@H]1CN(c2ccc(C3CC[S+]([O-])CC3)c(F)c2)C(=O)O1 (stereo partly drawn) [Example 10, (S)-trans-[[3-[3-Fluoro-4-(tetrahydro-1-oxido-2H-thiopyran4-yl)phenyl]-2-oxo-5-oxazolidinyl]methyl]thiourea] | – | 1 (≈ 2.59 µM) | 2 (≈ 5.19 µM) | 1 (≈ 2.59 µM) | 2 (≈ 5.19 µM) | 1 (≈ 2.59 µM) | < 0.125 | 0.25 (≈ 0.649 µM) | 0.5 (≈ 1.3 µM) | – | – | – | – | – | – | – | – | –
5 | CC(=S)NC[C@H]1CN(c2ccc(C3CCS(=O)(=O)CC3)c(F)c2)C(=O)O1 [Example 11, (S)-N-[[3-[3-Fluoro-4-(tetrahydro-1,1-dioxido-2H-thiopyran-4-yl)phenyl]-2-oxo-5-oxazolidinyl]methyl]ethanethioamide] | – | 0.25 (≈ 0.624 µM) | 2 (≈ 4.99 µM) | 1 (≈ 2.5 µM) | 0.25 (≈ 0.624 µM) | 0.25 (≈ 0.624 µM) | < 0.125 | 0.25 (≈ 0.624 µM) | 0.25 (≈ 0.624 µM) | – | – | – | – | – | – | – | – | –
6 | NC(=S)NC[C@H]1CN(c2ccc(C3CCS(=O)(=O)CC3)c(F)c2)C(=O)O1 [Example 12, (S)-N-[[3-[3-Fluoro-4-(tetrahydro-1,1-dioxido-2H-thiopyran-4-yl)phenyl]-2-oxo-5-oxazolidinyl]methyl]thiourea] | – | 0.5 (≈ 1.25 µM) | 1 (≈ 2.49 µM) | 0.5 (≈ 1.25 µM) | 1 (≈ 2.49 µM) | 0.5 (≈ 1.25 µM) | < 0.125 | < 0.125 | 0.25 (≈ 0.623 µM) | – | – | – | – | – | – | – | – | –
7 | O=C1O[C@@H](CNC=S)CN1c1ccc(N2CCOCC2)c(F)c1 [Example 13, (S)-N-[[3-[3-Fluoro-4-(4-morpholinyl)phenyl]-2-oxo-5-oxazolidinyl]methyl]-thioformamide] | – | 2 (≈ 5.89 µM) | > 16 | 8 (≈ 23.6 µM) | 1 (≈ 2.95 µM) | 1 (≈ 2.95 µM) | 0.5 (≈ 1.47 µM) | 1 (≈ 2.95 µM) | 2 (≈ 5.89 µM) | 150 to 155 °C (dec.) | – | – | – | – | – | – | – | –
8 | O=C1O[C@@H](CNC(=S)CCl)CN1c1ccc(N2CCOCC2)c(F)c1 [Example 15, (S)-N-[[3-[3-Fluoro-4-(4-morpholinyl)phenyl]-2-oxo-5-oxrazolidinyl]methyl]-2-chlorotlioacetamide] | – | 32 (≈ 82.5 µM) | > 64 | 64 (≈ 165 µM) | 32 (≈ 82.5 µM) | 16 (≈ 41.3 µM) | 4 (≈ 10.3 µM) | 8 (≈ 20.6 µM) | 32 (≈ 82.5 µM) | – | – | – | – | – | – | – | – | –
9 | N#CCC(=S)NC[C@H]1CN(c2ccc(N3CCOCC3)c(F)c2)C(=O)O1 [Example 19, (S)-N-[[3-[3-Fluoro-4-(4-morpholinyl)phenyl]-2-oxo-5-10 oxazolidinyl]methyl]-α-eyanothioacetamnide] | – | – | – | – | – | – | – | – | – | – | 32 | 32 | 64 | 32 | 32 | 16 | 16 | 16
10 | CC(=S)NC[C@H]1CN(c2ccc(-n3cncn3)c(F)c2)C(=O)O1 [Example 22] | – | 1 (≈ 2.98 µM) | 4 (≈ 11.9 µM) | 2 (≈ 5.96 µM) | 0.5 (≈ 1.49 µM) | 0.5 (≈ 1.49 µM) | < 0.125 | 0.25 (≈ 0.745 µM) | 1 (≈ 2.98 µM) | – | – | – | – | – | – | – | – | –
11 | CC(=S)NC[C@H]1CN(c2ccc(N3CCS(=O)(=O)CC3)c(F)c2)C(=O)O1 [Example 28, (S)-N-[[3-[3-Fluoro-4-(4-thiomorpholinyl)phenyl]-2-oxo-5-oxazolidinyl]methyl]thio-acetamide, thiomorpholine S, S-dioxide] | – | – | – | – | – | – | – | – | – | – | 0.5 | 0.5 | 2 | 1 | 0.5 | 0.25 | 0.25 | 0.25
12 | CSC(=S)NC[C@H]1CN(c2ccc(N3CCOCC3)c(F)c2)C(=O)O1 [Example 34] | – | – | – | – | – | – | – | – | – | – | 2 | 2 | >16 | 4 | 2 | 1 | 0.5 | 1
13 | COC(=S)NC[C@H]1CN(c2ccc(N3CCOCC3)c(F)c2)C(=O)O1 [Example 35] | – | – | – | – | – | – | – | – | – | – | 1 | 1 | 16 | 2 | 1 | 0.5 | 0.25 | 0.5
14 | COC(=S)NC[C@H]1CN(c2ccc(N3CC[S+]([O-])CC3)c(F)c2)C(=O)O1 [Example 100, (S)-N-[[3-[3-Fluoro-4-(4-thiomorpholinyl)phenyl]-2-oxo-5-oxazolidinyl]methyl]-O-methylthiocarbamate, thiomorpholine S-oxide] | – | – | – | – | – | – | – | – | – | 208 to 209 °C | – | – | – | – | – | – | – | –
15 | CC(=S)NC[C@H]1CN(c2ccc(N3CCCSCC3)cc2)C(=O)O1 [Example 534, (5S)-N-[[3-[4-(Tetrahydro-1,4-thiazepin-4(5H)-yl)phenyl]-2-oxo-5-oxazolidinyl]methyl]thioacetamide] | – | – | – | – | – | – | – | – | – | 129 to 131 °C | – | – | – | – | – | – | – | –
